Reference: patent US8192962B2, “Processes for detecting toxic substances” (Daikin Industries, Ltd., priority 2001, dated 2012)

Tested on: DNA repair protein genes
Experiment: DNA chip mRNA expression in yeast, DNA repair protein genes (Table 3)
Format: cell-based, Saccharomyces cerevisiae S288C
Conditions: incubated two hours, concentrations as in the 1st table
Outline: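 Untreated cultures served as reference for log-phase S288C yeast given a growth-inhibiting, non-lethal toxicant dose for 2 h at 25° C. in YPD. Gene expression was measured on a whole-genome DNA chip from Cy3/Cy5-labeled cDNA.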

With CCCCCCCCCCCCc1ccc(S(=O)(=O)[O-])cc1.[Na+] [(17), sodium dodecylbenzosulfonate] the “The level of expressed mRNA in the presence of chemical substance/The level of expressed mRNA in the absence of chemical substance” value (yeast gene YAL015C) was 1.1, the “The level of expressed mRNA in the presence of chemical substance/The level of expressed mRNA in the absence of chemical substance” value (yeast gene YAR007C) was 0.8 and the “The level of expressed mRNA in the presence of chemical substance/The level of expressed mRNA in the absence of chemical substance” value (yeast gene YBL019W) was 0.8. For the same compound, the “The level of expressed mRNA in the presence of chemical substance/The level of expressed mRNA in the absence of chemical substance” value (yeast gene YBR073W) was 0.7, the “The level of expressed mRNA in the presence of chemical substance/The level of expressed mRNA in the absence of chemical substance” value (yeast gene YBR272C) was 1.1 and the “The level of expressed mRNA in the presence of chemical substance/The level of expressed mRNA in the absence of chemical substance” value (yeast gene YCR014C) was 1.0. For the same compound, the “The level of expressed mRNA in the presence of chemical substance/The level of expressed mRNA in the absence of chemical substance” value (yeast gene YDL017W) was 0.8, the “The level of expressed mRNA in the presence of chemical substance/The level of expressed mRNA in the absence of chemical substance” value (yeast gene YDL059C) was 0.8 and the “The level of expressed mRNA in the presence of chemical substance/The level of expressed mRNA in the absence of chemical substance” value (yeast gene YDL200C) was 0.9. The “The level of expressed mRNA in the presence of chemical substance/The level of expressed mRNA in the absence of chemical substance” value (yeast gene YDR054C) was 0.8, the “The level of expressed mRNA in the presence of chemical substance/The level of expressed mRNA in the absence of chemical substance” value (yeast gene YDR369C) was 0.8 and the “The level of expressed mRNA in the presence of chemical substance/The level of expressed mRNA in the absence of chemical substance” value (yeast gene YEL019C) was 0.8. For the same compound, the “The level of expressed mRNA in the presence of chemical substance/The level of expressed mRNA in the absence of chemical substance” value (yeast gene YEL037C) was 1.0, the “The level of expressed mRNA in the presence of chemical substance/The level of expressed mRNA in the absence of chemical substance” value (yeast gene YER162C) was 1.2 and the “The level of expressed mRNA in the presence of chemical substance/The level of expressed mRNA in the absence of chemical substance” value (yeast gene YFL014W) was 1.5. For the same compound, the “The level of expressed mRNA in the presence of chemical substance/The level of expressed mRNA in the absence of chemical substance” value (yeast gene YGL058W) was 1.1, the “The level of expressed mRNA in the presence of chemical substance/The level of expressed mRNA in the absence of chemical substance” value (yeast gene YGL091C) was 1.4 and the “The level of expressed mRNA in the presence of chemical substance/The level of expressed mRNA in the absence of chemical substance” value (yeast gene YGL127C) was 1.0. For the same compound, the “The level of expressed mRNA in the presence of chemical substance/The level of expressed mRNA in the absence of chemical substance” value (yeast gene YGL163C) was 0.9, the “The level of expressed mRNA in the presence of chemical substance/The level of expressed mRNA in the absence of chemical substance” value (yeast gene YGL249W) was 1.0 and the “The level of expressed mRNA in the presence of chemical substance/The level of expressed mRNA in the absence of chemical substance” value (yeast gene YGR180C) was 1.0. For the same compound, the “The level of expressed mRNA in the presence of chemical substance/The level of expressed mRNA in the absence of chemical substance” value (yeast gene YGR231C) was 1.0, the “The level of expressed mRNA in the presence of chemical substance/The level of expressed mRNA in the absence of chemical substance” value (yeast gene YGR258C) was 1.0 and the “The level of expressed mRNA in the presence of chemical substance/The level of expressed mRNA in the absence of chemical substance” value (yeast gene YHR164C) was 0.8. For the same compound, the “The level of expressed mRNA in the presence of chemical substance/The level of expressed mRNA in the absence of chemical substance” value (yeast gene YIL036W) was 1.1, the “The level of expressed mRNA in the presence of chemical substance/The level of expressed mRNA in the absence of chemical substance” value (yeast gene YIL072W) was 1.0 and the “The level of expressed mRNA in the presence of chemical substance/The level of expressed mRNA in the absence of chemical substance” value (yeast gene YIL143C) was 0.9. The “The level of expressed mRNA in the presence of chemical substance/The level of expressed mRNA in the absence of chemical substance” value (yeast gene YIL153W) was 0.9, the “The level of expressed mRNA in the presence of chemical substance/The level of expressed mRNA in the absence of chemical substance” value (yeast gene YIR002C) was 1.1 and the “The level of expressed mRNA in the presence of chemical substance/The level of expressed mRNA in the absence of chemical substance” value (yeast gene YJL026W) was 1.4. For the same compound, the “The level of expressed mRNA in the presence of chemical substance/The level of expressed mRNA in the absence of chemical substance” value (yeast gene YJR046W) was 0.7, the “The level of expressed mRNA in the presence of chemical substance/The level of expressed mRNA in the absence of chemical substance” value (yeast gene YJR052W) was 1.0 and the “The level of expressed mRNA in the presence of chemical substance/The level of expressed mRNA in the absence of chemical substance” value (yeast gene YKL145W) was 1.1. For the same compound, the “The level of expressed mRNA in the presence of chemical substance/The level of expressed mRNA in the absence of chemical substance” value (yeast gene YLR103C) was 1.1, the “The level of expressed mRNA in the presence of chemical substance/The level of expressed mRNA in the absence of chemical substance” value (yeast gene YLR233C) was 1.0 and the “The level of expressed mRNA in the presence of chemical substance/The level of expressed mRNA in the absence of chemical substance” value (yeast gene YLR288C) was 1.2. The “The level of expressed mRNA in the presence of chemical substance/The level of expressed mRNA in the absence of chemical substance” value (yeast gene YML032C) was 1.0, the “The level of expressed mRNA in the presence of chemical substance/The level of expressed mRNA in the absence of chemical substance” value (yeast gene YML058W) was 1.3 and the “The level of expressed mRNA in the presence of chemical substance/The level of expressed mRNA in the absence of chemical substance” value (yeast gene YMR035W) was 2.2. For the same compound, the “The level of expressed mRNA in the presence of chemical substance/The level of expressed mRNA in the absence of chemical substance” value (yeast gene YMR072W) was 0.9, the “The level of expressed mRNA in the presence of chemical substance/The level of expressed mRNA in the absence of chemical substance” value (yeast gene YMR096W) was 2.2 and the “The level of expressed mRNA in the presence of chemical substance/The level of expressed mRNA in the absence of chemical substance” value (yeast gene YMR284W) was 1.1. For the same compound, the “The level of expressed mRNA in the presence of chemical substance/The level of expressed mRNA in the absence of chemical substance” value (yeast gene YNL213C) was 0.9, the “The level of expressed mRNA in the presence of chemical substance/The level of expressed mRNA in the absence of chemical substance” value (yeast gene YNL250W) was 1.0 and the “The level of expressed mRNA in the presence of chemical substance/The level of expressed mRNA in the absence of chemical substance” value (yeast gene YNL261W) was 0.8. The “The level of expressed mRNA in the presence of chemical substance/The level of expressed mRNA in the absence of chemical substance” value (yeast gene YNL312W) was 1.2, the “The level of expressed mRNA in the presence of chemical substance/The level of expressed mRNA in the absence of chemical substance” value (yeast gene YOL043C) was 1.0 and the “The level of expressed mRNA in the presence of chemical substance/The level of expressed mRNA in the absence of chemical substance” value (yeast gene YOR005C) was 1.1. The “The level of expressed mRNA in the presence of chemical substance/The level of expressed mRNA in the absence of chemical substance” value (yeast gene YOR386W) was 2.1, the “The level of expressed mRNA in the presence of chemical substance/The level of expressed mRNA in the absence of chemical substance” value (yeast gene YPL022W) was 0.9 and the “The level of expressed mRNA in the presence of chemical substance/The level of expressed mRNA in the absence of chemical substance” value (yeast gene YPL164C) was 1.0. The “The level of expressed mRNA in the presence of chemical substance/The level of expressed mRNA in the absence of chemical substance” value (yeast gene YPL194W) was 1.0 and the “The level of expressed mRNA in the presence of chemical substance/The level of expressed mRNA in the absence of chemical substance” value (yeast gene YPR025C) was 1.1.
